These molecules were tested against T1, human TLR9 (hTLR9) (Homo sapiens, UniProt Q9NR96) (assay: Antagonist screen, hTLR9-NFκB-293 cells, 6× NF-κB-luciferase reporter, with EC50 of CpG ODN 2006). Settings: compound at 0.5, 5, 50 μg/ml; EC50 concentration of CpG ODN 2006; 16 h; NF-κB-luciferase.
T1 construct: expressed in transfected cells
T1 sequence (Q9NR96 26-1032): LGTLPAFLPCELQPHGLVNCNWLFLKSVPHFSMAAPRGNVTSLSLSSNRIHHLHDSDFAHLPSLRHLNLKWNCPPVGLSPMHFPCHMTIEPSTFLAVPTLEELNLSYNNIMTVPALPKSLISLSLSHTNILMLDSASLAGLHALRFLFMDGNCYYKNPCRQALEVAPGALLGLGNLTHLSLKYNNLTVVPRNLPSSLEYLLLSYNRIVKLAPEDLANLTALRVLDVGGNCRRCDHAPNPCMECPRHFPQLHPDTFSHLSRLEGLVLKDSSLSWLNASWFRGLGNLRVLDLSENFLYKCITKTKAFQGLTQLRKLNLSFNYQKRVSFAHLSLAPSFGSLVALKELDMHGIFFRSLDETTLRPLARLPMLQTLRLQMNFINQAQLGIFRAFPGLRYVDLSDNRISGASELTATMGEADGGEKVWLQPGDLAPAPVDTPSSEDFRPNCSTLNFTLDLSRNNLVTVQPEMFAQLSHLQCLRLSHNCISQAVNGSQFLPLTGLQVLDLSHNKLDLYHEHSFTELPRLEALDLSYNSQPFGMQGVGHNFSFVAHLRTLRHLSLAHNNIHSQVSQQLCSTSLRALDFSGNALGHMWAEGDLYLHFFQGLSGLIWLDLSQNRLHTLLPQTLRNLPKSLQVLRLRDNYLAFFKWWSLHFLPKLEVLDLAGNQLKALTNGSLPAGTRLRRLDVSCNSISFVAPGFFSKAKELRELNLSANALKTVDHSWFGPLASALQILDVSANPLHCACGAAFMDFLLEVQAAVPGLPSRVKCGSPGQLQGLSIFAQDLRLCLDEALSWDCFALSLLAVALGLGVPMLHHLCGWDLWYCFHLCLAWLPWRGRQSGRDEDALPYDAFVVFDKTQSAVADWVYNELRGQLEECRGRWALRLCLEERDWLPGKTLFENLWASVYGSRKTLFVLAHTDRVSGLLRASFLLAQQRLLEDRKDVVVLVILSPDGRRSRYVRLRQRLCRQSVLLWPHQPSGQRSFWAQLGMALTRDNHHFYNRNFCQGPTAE
Assay type: cell-based
Method: Candidate small molecules for initial screening were obtained from a commercially available library of 880 off-patent small molecules selected for structural diversity and proven bioavailability in humans (Prestwick Chemical Library). […] Results were measured as fold induction over baseline luciferase activity measured in the absence of ODN 2006 and compared to fold induction over baseline in the presence of the EC50 concentration of ODN 2006 alone. […] Additional screening was performed in like manner using additional small molecules selected from another library or specifically prepared for this purpose.
The method is described in greater detail as follows. The cells for each individual cell clone (hTLR3-NFκB-293, hTLR7-NFκB-293, hTLR8-NFκB-293 and hTLR9-NFκB-293) were counted and seeded one day before the stimulation at 1.5×10^4 cells per well in 96-well cell culture plates. To become adherent the cells were incubated after seeding overnight at 37° C. in 5% CO2 humidified air.
The screen for each compound was performed at the same time for all of the receptors TLR3, TLR7, TLR8 and TLR9. Up to fifteen test compounds, each assayed in duplicate at each of three different final concentrations (0.5 μg/ml, 5 μg/ml, and 50 μg/ml), were used for 16 h cell stimulation on a single multiwell culture plate. A 4× final concentration master plate was created to prepare the different test compounds before they were added to the cells.
Controls were added as duplicates individually for each cell clone on the cell culture plate. Positive controls were used as follows (final concentrations): 50 μg/ml poly(I:C) for hTLR3-NFκB-293; 8 μM resiquimod (R848) for hTLR7-NFκB-293; 30 μM R848 for hTLR8-NFκB-293; and 2.5 μM CpG-ODN 2006 for hTLR9-NFκB-293. Media alone was used as negative control. After addition of controls and small molecules, the cell clones were additionally stimulated with the EC50 concentration of the appropriate receptor-specific ligand.
The mean value of wells H2 and H5 (each with cells and EC50 concentration of the appropriate receptor-specific ligand) divided by the mean of wells H3 and H6 (each with cells alone) yielded the baseline response (i.e., fold induction of luciferase activity) to EC50 concentration of the appropriate receptor-specific ligand.
After 16 h stimulation the supernatant was removed and the cells treated with lysis buffer and stored at −80° C. before measuring.
For each screen result a graphical documentation was performed.
The baseline result (measured with addition of the EC50 concentration of the receptor-specific ligand) for each cell culture plate was measured as described above. Antagonistic effects were measured by down regulation compared to the baseline. Antagonists were scored as follows: • 13: compounds for which there was clear down regulation at 0.5 μg/ml, 5 μg/ml, and 50 μg/ml; • 12: compounds for which there was clear down regulation at 5 μg/ml and 50 μg/ml; • 11: compounds for which there was clear down regulation only at 50 μg/ml; • —: compounds for which there was no clear down regulation even at 50 μg/ml. Agonists
In the case of Cc1nccc2c1[nH]c1cc(O)ccc12.Cl [compound 612, Harmol hydrochloride monohydrate], the “hTLR9 (inhibitory effect, antagonist score)” value is reported as 12 (compounds for which there was clear down regulation at 5 μg/ml and 50 μg/ml). With Cl.Clc1ccc(C(OCCN2CCCCC2)c2ccccc2)cc1 (centres unmarked) [compound 793, Cloperastinehydrochloride] the “hTLR9 (inhibitory effect, antagonist score)” value was 12 (compounds for which there was clear down regulation at 5 μg/ml and 50 μg/ml). In the case of Cc1cccc(CN2CCN(C(c3ccccc3)c3ccc(Cl)cc3)CC2)c1.Cl.Cl (centres unmarked) [compound 457, Meclozinedihydrochioride], the “hTLR9 (inhibitory effect, antagonist score)” value is reported as 11 (compounds for which there was clear down regulation only at 50 μg/ml). In the case of CC(CN(C)C)CN1c2ccccc2Sc2ccccc21.CC(CN(C)C)CN1c2ccccc2Sc2ccccc21.O=C(O)C(O)C(O)C(=O)O (centres unmarked) [compound 842, Trimeprazine tartrate], the “hTLR9 (inhibitory effect, antagonist score)” value is reported as “— (compounds for which there was no clear down regulation even at 50 μg/ml)”. For O=C1c2ccccc2C(=O)c2c1ccc1c(=O)n(C3CCCCC3)[nH]c21 [compound 1015], the “hTLR9 (inhibitory effect, antagonist score)” value was 11 (compounds for which there was clear down regulation only at 50 μg/ml). CS(=O)(=O)O.OC(CCN1CCCCC1)(c1ccccc1)c1ccccc1 [compound 799, Pridinolmethanesulfonate salt] was tested, and the “hTLR9 (inhibitory effect, antagonist score)” value was 11 (compounds for which there was clear down regulation only at 50 μg/ml). With CCN(CC)C(C)CN1c2ccccc2Sc2ccccc21.Cl (centres unmarked) [compound 840, Ethopropazinehydrochloride] the “hTLR9 (inhibitory effect, antagonist score)” value was 11 (compounds for which there was clear down regulation only at 50 μg/ml). CC[C@]12CCCN3CCc4c(n(c5ccccc45)[C@](O)(C(=O)OC)C1)[C@@H]32 [compound 636, Epivincamine] was tested, and the “hTLR9 (inhibitory effect, antagonist score)” value was “— (compounds for which there was no clear down regulation even at 50 μg/ml)”. With CCOC(=O)Oc1c(OC)cc(C(=O)O[C@@H]2C[C@@H]3CN4CCc5c([nH]c6cc(OC)ccc56)[C@H]4C[C@@H]3[C@H](C(=O)OC)[C@H]2OC)cc1OC [compound 564, Syrosingopine] the “hTLR9 (inhibitory effect, antagonist score)” value was 13 (compounds for which there was clear down regulation at 0.5 μg/ml, 5 μg/ml, and 50 μg/ml). With CN(C)CCCN1c2ccccc2Sc2ccccc21.Cl [compound 693, Promazinehydrochloride] the “hTLR9 (inhibitory effect, antagonist score)” value was 12 (compounds for which there was clear down regulation at 5 μg/ml and 50 μg/ml). For Cc1c2ccncc2c(C)c2c1[nH]c1ccccc12 [compound 614, Ellipticine], the “hTLR9 (inhibitory effect, antagonist score)” value was 13 (compounds for which there was clear down regulation at 0.5 μg/ml, 5 μg/ml, and 50 μg/ml). In the case of C[N+]12CCC(CC1)C(OC(=O)C(O)(c1ccccc1)c1ccccc1)C2.[Br-] (centres unmarked) [compound 822, Clidinium bromide], the “hTLR9 (inhibitory effect, antagonist score)” value is reported as 12 (compounds for which there was clear down regulation at 5 μg/ml and 50 μg/ml). With CN(C)CC/C=C1/c2ccccc2CSc2ccccc21.Cl [compound 488, Dosulepin hydrochloride] the “hTLR9 (inhibitory effect, antagonist score)” value was 12 (compounds for which there was clear down regulation at 5 μg/ml and 50 μg/ml). For CN1CCCCC1CCN1c2ccccc2Sc2ccc([S+](C)[O-])cc21.O=S(=O)(O)c1ccccc1 (centres unmarked) [compound 529, Mesoridazine besylate], the “hTLR9 (inhibitory effect, antagonist score)” value was 11 (compounds for which there was clear down regulation only at 50 μg/ml). In the case of O=C(O)c1ccccc1NC1CC=CC2=C1C(=O)c1ccccc1C2=O (centres unmarked) [compound 917], the “hTLR9 (inhibitory effect, antagonist score)” value is reported as “— (compounds for which there was no clear down regulation even at 50 μg/ml)”. In the case of Cl.Cl.c1ccc2c3c([nH]c2c1)C1C2CCC(C4CCCNC42)N1CC3 (centres unmarked) [compound 685, Nitrarine dihydorchloride], the “hTLR9 (inhibitory effect, antagonist score)” value is reported as 11 (compounds for which there was clear down regulation only at 50 μg/ml). In the case of CC1NCCc2c1[nH]c1ccccc21.Cl (racemic) [compound 619, Eleagnine hydrochloride (R,S)], the “hTLR9 (inhibitory effect, antagonist score)” value is reported as 12 (compounds for which there was clear down regulation at 5 μg/ml and 50 μg/ml).

— patent US7410975B2, “Small molecule toll-like receptor (TLR) antagonists” (Coley Pharmaceutical Group, Inc., priority 2003, dated 2008)
